Reference: a compilation of properties of binary mixtures (doi:10.1007/s10953-008-9260-8)

Test: xn = mol fraction of the nth substance listed
Conditions: 101 kPa

CCCC[n+]1ccn(C)c1.F[B-](F)(F)F + CCCCCC[n+]1ccn(C)c1.F[B-](F)(F)F
x1 = 1
Conditions | viscosity [mPa·s]
298.15 K | 106.4
299.15 K | 101
301.15 K | 91.1
302.15 K | 86.7
303.15 K | 82.6
304.15 K | 78.9
307.15 K | 68.5
308.15 K | 65.4

CC[n+]1ccn(C)c1.F[B-](F)(F)F + CCCCCC[n+]1ccn(C)c1.F[B-](F)(F)F
x1 = 1
Conditions | viscosity [mPa·s]
298.15 K | 35.8
301.15 K | 32.15
302.15 K | 31.06
303.15 K | 30.06
304.15 K | 29.01
305.15 K | 28.13
307.15 K | 26.38

CCCC[n+]1ccn(C)c1.F[B-](F)(F)F + CCCC[n+]1ccn(C)c1.COS(=O)(=O)[O-]
x1 = 1
Conditions | viscosity [mPa·s]
298.15 K | 108.9
299.15 K | 103.5
301.15 K | 93.2
303.15 K | 84.5
304.15 K | 80.5
307.15 K | 69.9
308.15 K | 66.8

CCCCCC[n+]1ccn(C)c1.F[B-](F)(F)F + CCCC[n+]1ccn(C)c1.F[B-](F)(F)F
viscosity [mPa·s]
Conditions | 298.15 K | 299.15 K | 301.15 K | 302.15 K | 303.15 K | 304.15 K | 305.15 K | 307.15 K | 308.15 K
x2 = 0 | 209 | 197.3 | 175.8 | 165.9 | 157 | 148.6 | 140.7 | 126.7 | 120
x2 = 0.054 | 200.2 | 188.7 | 168.3 | 160.4 | 147.5 | 142.5 | 135.7 | – | 117.4
x2 = 0.103 | – | – | 164.5 | 156.8 | 147.1 | – | 132 | 119 | –
x2 = 0.2076 | 172.4 | 161.3 | 145 | 137.3 | 130.2 | 122.8 | 117.3 | 106.1 | 101
x2 = 0.2995 | 167.3 | 161.3 | 141.6 | 134.2 | 127.2 | 120.6 | 114.6 | – | 98.5
x2 = 0.3602 | 165.7 | 156.7 | 140.4 | – | – | 119.8 | – | 102.6 | –
x2 = 0.4383 | 158.7 | 149 | 133.4 | 126.3 | 119.7 | 113.7 | – | 97.4 | –
x2 = 0.5047 | 149.8 | 144 | 129.1 | 122.4 | 116.1 | – | 104.7 | 94.6 | 90
x2 = 0.555 | 144 | 135.9 | 122.2 | – | – | 104.4 | 99.3 | 90 | 85.9
x2 = 0.598 | 142.4 | 134.7 | 121.1 | 114.9 | 108.6 | 103.6 | – | 89.3 | 85.2
x2 = 0.809 | 122.3 | – | – | 99.2 | – | 89.9 | – | 77.7 | 74.5
x2 = 0.8917 | – | 109.5 | – | – | – | 85 | 81 | 73.6 | 70.3

CCCC[n+]1ccn(C)c1.COS(=O)(=O)[O-] + CCCC[n+]1ccn(C)c1.F[B-](F)(F)F
viscosity [mPa·s]
Conditions | 298.15 K | 299.15 K | 301.15 K | 302.15 K | 303.15 K | 304.15 K | 305.15 K | 307.15 K | 308.15 K
x2 = 0 | 215 | – | 181.2 | – | 162.3 | 156.8 | 145.7 | 131.2 | 124.5
x2 = 0.1209 | 192.5 | – | – | 153.9 | 145.8 | 138.2 | – | 118.2 | –
x2 = 0.2142 | 188.2 | 177.6 | – | 147 | 142.2 | 134.8 | – | 115.2 | 109.5
x2 = 0.3057 | 180.2 | 170.3 | 152.3 | – | 136.7 | – | 123.2 | 111.2 | 105.9
x2 = 0.406 | 168.1 | 160.7 | 142.4 | 135 | – | 121.4 | 115 | 104 | –
x2 = 0.4358 | – | 151.3 | – | 129.3 | 122.4 | 116 | 110 | – | 94.5
x2 = 0.5118 | – | 147.4 | 132.1 | 125.1 | – | 112.7 | 107 | 96.8 | 92
x2 = 0.5412 | 149.5 | 143.6 | 128.6 | – | 115.8 | – | 104 | 93.9 | 89.6
x2 = 0.6026 | – | 138.4 | 124.1 | – | 111.4 | 105.7 | – | – | 86.8
x2 = 0.648 | 141.6 | 133.8 | 120 | – | 108 | 102.4 | 97.1 | 87.8 | 83.6
x2 = 0.6934 | 137.5 | 130 | – | 110.8 | 105.1 | – | 95.1 | 86.2 | 82
x2 = 0.7813 | 128.4 | 121.5 | – | 103.9 | 98.7 | 93.8 | 89.3 | 81.2 | 77.4
x2 = 0.9005 | 117.6 | 111.5 | 100.7 | 96 | 90.7 | 86.9 | – | 75.4 | 72.6
x2 = 0.9447 | – | 105.3 | 95.1 | 90.7 | 86.2 | 82 | – | 71.1 | –

CCCC[n+]1ccn(C)c1.F[P-](F)(F)(F)(F)F + CCCC[n+]1ccn(C)c1.F[B-](F)(F)F
viscosity [mPa·s]
Conditions | 298.15 K | 299.15 K | 301.15 K | 302.15 K | 303.15 K | 304.15 K | 305.15 K | 307.15 K | 308.15 K
x1 = 0.0568 | 106.8 | 101.3 | – | – | – | 79 | 75.3 | 68.5 | 65.39
x1 = 0.1034 | – | – | – | 94.4 | 89.7 | 85.5 | 81.4 | 74.3 | 70.9
x1 = 0.2095 | 128.1 | – | 109.5 | 103.9 | 98.8 | 94.2 | 89.5 | 81.3 | –
x1 = 0.3012 | 137.4 | 130.1 | 117 | 111.1 | 105.4 | 100.2 | 95.3 | 86.4 | 82.4
x1 = 0.3825 | 146.7 | 139.9 | 125.6 | – | 113 | 107.1 | 102.1 | – | –
x1 = 0.4647 | 157.7 | 145.6 | 131.8 | – | 118.1 | 111.8 | 106.9 | 96.4 | 91.9
x1 = 0.4999 | 169.3 | 159.7 | – | 135.8 | 128.2 | – | – | 103.9 | 98.4
x1 = 0.5385 | 168.5 | 159.6 | 142.9 | 134.8 | – | 121.6 | 114.9 | 104.1 | –
x1 = 0.5974 | 182.5 | 172.4 | 156.7 | 145.4 | 137.6 | 130.5 | 123.9 | 111.8 | 106
x1 = 0.6928 | 201.4 | 190.1 | 169.9 | 160.9 | 155.3 | 144.1 | – | 123.3 | 116.9
x1 = 0.833 | – | 214 | 190.2 | 179.5 | 169.7 | 160.5 | 154.5 | – | 129.2
x1 = 0.8877 | – | 224 | 199 | 187.7 | 177.3 | 167.5 | 159 | 142.2 | 134.8
x1 = 0.945 | 249 | 234 | 208 | 196.2 | 185.4 | 175.3 | – | – | 142.5
x1 = 1 | 279 | – | – | 218 | 206 | 194.8 | 183.8 | 164.5 | –

CCCC[n+]1ccn(C)c1.F[B-](F)(F)F + CCCC[n+]1ccn(C)c1.F[P-](F)(F)(F)(F)F
x2 = 0
Conditions | viscosity [mPa·s]
298.15 K | 107.2
302.15 K | 87.5
304.15 K | 79.6
305.15 K | 75.9
307.15 K | 69.1
308.15 K | 66.1

CCCCCC[n+]1ccn(C)c1.F[B-](F)(F)F + CC[n+]1ccn(C)c1.F[B-](F)(F)F
viscosity [mPa·s]
Conditions | 298.15 K | 299.15 K | 301.15 K | 302.15 K | 303.15 K | 304.15 K | 305.15 K | 307.15 K | 308.15 K
x2 = 0 | – | – | 177.2 | – | 160.9 | 148.4 | 141.2 | 127.5 | 120.7
x2 = 0.0545 | 184.1 | 173.9 | – | 147.1 | 139.3 | 132.4 | 125.1 | 113.1 | 107.3
x2 = 0.1196 | 171.7 | – | 145.5 | – | 130.2 | 123.7 | 117.7 | 106 | 100.8
x2 = 0.1803 | 158.1 | – | – | 125.9 | – | 113.4 | 108 | 97.5 | –
x2 = 0.3145 | 128.3 | – | 109.7 | 104.1 | 99.1 | 94.2 | – | 81.4 | –
x2 = 0.4061 | – | 106 | 95.9 | 91.3 | 87 | 82.8 | 78.9 | 71.9 | 68.8
x2 = 0.446 | 104.5 | 99.3 | 89.9 | 85.6 | 81.6 | 77.7 | 74.3 | 67.8 | 64.8
x2 = 0.4938 | 96 | – | 82.7 | 78.6 | 75.1 | 71.7 | – | 62.6 | –
x2 = 0.5526 | 86.7 | 82.5 | 75 | 71.4 | – | 65.3 | 62.36 | 57.17 | 54.84
x2 = 0.6006 | 78.3 | – | 68.1 | 64.9 | – | 59.61 | – | 52.51 | –
x2 = 0.7059 | 64.3 | 61.64 | 56.52 | 54.22 | – | – | 47.93 | 44.34 | 42.66
x2 = 0.793 | – | – | 47.42 | 45.56 | – | 42.09 | – | – | –
x2 = 0.8516 | 48.1 | 46.22 | – | – | 39.58 | 38.13 | 36.71 | 34.2 | 33
x2 = 0.9022 | 43.3 | – | – | – | 35.77 | – | – | – | –
